Earlier results as cited in US20250353815A1, “AMINO ACID HAVING FLUORINE AT a-POSITION, AND DERIVATIVE OF SAME” (SynCrest Inc., priority 2022, published 2025).
pIC50: −log10 of the molar value.

What was measured:
DNA methyltransferase [1] = details: inhibition of DNA methyltransferase
DNA methyltransferase [2] = test system: DNA methyltransferase

pIC50 (DNA methyltransferase [1]): 6.94
SMILES: O=C(O)[C@H](Cc1c[nH]c2ccccc12)N1C(=O)c2ccccc2C1=O [RG-108, N-phthalyl-L-tryptophan]
binding to the active site of the enzyme in molecular modeling (DNA methyltransferase [2]): bind directly to the active site of the enzyme
reprogramming of somatic cells into iPS cells (human somatic cells): promotes the reprogramming
reprogramming of somatic cells into iPS cells (mouse somatic cells): promotes the reprogramming
